Columns and labels:
[1] = Cytotoxicity in Caco-2 cells by MTT assay; type: cell-based; details: human
Experimental: The viability of Caco-2 cells were measured after treated for 180 min with Hanks’ balanced salts solution (HBSS) (negative control), paclitaxel (positive control, 25, 50, 75 and 100 μM), BFL (50, 75, 100 and 125 μM) and BPDI (containing BFL 50, 75, 100 and 125 μM), respectively.
The cytotoxicities of free BFL and its formulation, BPDI against Caco-2 cells were tested using the 3-(4,5-dimethylthiazol-2-yl)-2,5-diphenyltetrazolium bromide (MTT) assay. Caco-2 cells at the logarithmic growth were seeded in 96-well plate at the concentration of […] and incubated in an atmosphere of 5% CO2 and 90% relative humidity at 37 °C for three days. After cells attachment, HBSS solution (negative control), paclitaxel (positive control, 25, 50, 75, and 100 μM), BFL (50, 75, 100, and 125 μM), and BPDI (containing BFL 50, 75, 100, and 125 μM) solutions were added into each well, respectively. After cells were treated for three hours, HBSS solution was removed, and cells were rinsed with PBS and incubated with 20 μL of MTT solution (0.5 mg/mL) for 4 h at 37°C and 5% CO2. Then the cells were shaken with 200 μL of DMSO for 10 min, and the absorbance was read on the microplate reader (SPECTROstar Omega, BMG LabTech GmbH, Ortenberg, Germany) at 570 nm. The viability rates were calculated by the equation: % = A/A0 × 100, wherein A was the average absorbance value of treatment group, and A0 was the average absorbance value of negative control group.

in vitro = details: human
Experimental: (§1) Caco-2 cells (4.0 × 10^5 per mL) at the logarithmic growth were seeded into the AP (apical) side of a 24-well Transwell™ plates (Corning Inc., Cambridge, MA, USA). DMEM solution was added into the apical (AP) side (0.5 mL) and basal (BL) side (1.0 mL) of the chamber, respectively. The cell culture was maintained at 37 °C under 90% humidity and 5% CO2. The medium was refreshed every two days in the first week, and then on every day the following week. […] The cell inserts were considered as qualified for trans-membrane transport evaluation only if the resistance reached above […].
(§2) On day 21, the culture medium was removed from the AP and BL sides of the trans-well filters. The Caco-2 monolayers were rinsed twice with pre-warmed HBSS (37 °C) and incubated for 20 min. Then HBSS was removed completely. The test solution of BFL or BPDI (was added to AP (0.4 mL) or BL side (3.2 mL), and then same volume of HBSS was added to the corresponding sides (BL or AP sides). Incubation continued at 37 °C for 180 min. To evaluate the permeability of test compounds across the cell monolayer, solutions from BL (0.4 mL) or AP (3.2 mL) side were collected at different time intervals (60, 120, and 180 min), and replaced with the same volume of HBSS. The collected solutions were lyophilized and stored under −80 °C before HPLC analysis. Experiments for each time point were repeated three times and were performed on the independent chamber.
(§3) Chromatographic analysis was performed using a Alltima TM C18 column (4.6× 250 mm, 5 μm) on an Agilent 1200 liquid chromatography system, equipped with a quaternary solvent delivery system, an auto-sampler and a DAD detector. The isocratic eluting solution consists of A: 0.2% phosphoric acid and B: acetonitrile (54:46, v/v); the detection wavelength and flow rate were set at 226 nm and 1.0 mL/min, respectively. The HPLC analysis will be run for 25 min.
(§4) Apparent permeability values (Papp) for the test compound was calculated according to the equation [22] Papp = (dQ/dt)/(AC0) where Papp is the apparent permeability (cm/s), dQ/dt is the appearance rate of the test compound on the receiver side (μg/s), A represents the surface area of carbon ester membrane (cm^2), and C0 is the initial concentration of compounds on the given sides (μg/L).

Caco-2 cell monolayer = assay: in vitro
Experimental: as §1, §2, §3, §4

SMILES: CC(=O)O[C@H]1C(=O)[C@@]2(C)[C@H]([C@H](OC(=O)c3ccccc3)[C@]3(O)C[C@H](OC(=O)[C@H](O)[C@@H](NC(=O)c4ccccc4)c4ccccc4)C(C)=C1C3(C)C)[C@]1(OC(C)=O)CO[C@@H]1C[C@@H]2O [Paclitaxel, paclitaxel]
- viability at 25 µM ([1]; Caco-2 cells, 25 μM, 180 min, MTT): 65.3 ± 7.2%
- viability ([1]; Caco-2 cells, 50 μM (BPDI: containing BFL 50 μM), 180 min, MTT): 43.5 ± 5.4%
- viability ([1]; Caco-2 cells, 75 μM (BPDI: containing BFL 75 μM), 180 min, MTT): 34.8 ± 3.2%
- viability ([1]; Caco-2 cells, 100 μM (BPDI: containing BFL 100 μM), 180 min, MTT): 30.5 ± 2.6%

SMILES: C[C@]12CC[C@H](O)C[C@H]1CC[C@@H]1[C@@H]2CC[C@]2(C)[C@@H](c3ccc(=O)oc3)CC[C@]12O [BFL, Bufalin]
- viability at 180 min, 50 μM ([1]; Caco-2 cells, 50 μM (BPDI: containing BFL 50 μM), MTT): 102 ± 7.2%
- viability at 180 min, 75 μM ([1]; Caco-2 cells, 75 μM (BPDI: containing BFL 75 μM), MTT): 100 ± 8.6%
- viability at 180 min, 100 μM ([1]; Caco-2 cells, 100 μM (BPDI: containing BFL 100 μM), MTT): 99.1 ± 8.5%
- viability at 180 min, 125 μM ([1]; Caco-2 cells, 125 μM (BPDI: containing BFL 125 μM), MTT): 98.9 ± 6.4%
- viability at 180 min ([1]; Caco-2 cells, 50, 75, 100 and 125 μM, read-out: viabilities after treatment): > 95%
- Papp A→B at 120 min, 50 μM (in vitro; Caco-2, Papp AP→BL, 50 μM, 120 min, concentration series (Table 2), n = 3): 1.58 ± 0.32 ×10⁻⁶ cm/s
- Papp A→B at 60 min, 75 μM (in vitro; Caco-2, Papp AP→BL, 75 μM, 60 min, time course (Table 3), n = 3): 1.52 ± 0.22 ×10⁻⁶ cm/s
- Papp A→B at 120 min, 75 μM (in vitro; Caco-2, Papp AP→BL, 75 μM, 120 min, concentration series (Table 2), n = 3): 1.47 ± 0.08 ×10⁻⁶ cm/s
- Papp A→B at 120 min, 75 μM (in vitro; Caco-2, Papp AP→BL, 75 μM, 120 min, time course (Table 3), n = 3): 1.36 ± 0.08 ×10⁻⁶ cm/s
- Papp A→B at 180 min, 75 μM (in vitro; Caco-2, Papp AP→BL, 75 μM, 180 min, time course (Table 3), n = 3): 1.28 ± 0.02 ×10⁻⁶ cm/s
- Papp A→B at 120 min, 100 μM (in vitro; Caco-2, Papp AP→BL, 100 μM, 120 min, concentration series (Table 2), n = 3): 1.46 ± 0.02 ×10⁻⁶ cm/s
- Papp A→B at 120 min, 125 μM (in vitro; Caco-2, Papp AP→BL, 125 μM, 120 min, concentration series (Table 2), n = 3): 1.64 ± 0.12 ×10⁻⁶ cm/s
- Papp B→A at 120 min, 50 μM (in vitro; Caco-2, Papp BL→AP, 50 μM, 120 min, concentration series (Table 2), n = 3): 1.37 ± 0.18 ×10⁻⁶ cm/s
- Papp B→A at 60 min, 75 μM (in vitro; Caco-2, Papp BL→AP, 75 μM, 60 min, time course (Table 3), n = 3): 1.14 ± 0.28 ×10⁻⁶ cm/s
- Papp B→A at 120 min, 75 μM (in vitro; Caco-2, Papp BL→AP, 75 μM, 120 min, concentration series (Table 2), n = 3): 1.32 ± 0.14 ×10⁻⁶ cm/s
- Papp B→A at 120 min, 75 μM (in vitro; Caco-2, Papp BL→AP, 75 μM, 120 min, time course (Table 3), n = 3): 1.08 ± 0.17 ×10⁻⁶ cm/s
- Papp B→A at 180 min, 75 μM (in vitro; Caco-2, Papp BL→AP, 75 μM, 180 min, time course (Table 3), n = 3): 0.99 ± 0.12 ×10⁻⁶ cm/s
- Papp B→A at 120 min, 100 μM (in vitro; Caco-2, Papp BL→AP, 100 μM, 120 min, concentration series (Table 2), n = 3): 1.29 ± 0.1 ×10⁻⁶ cm/s
- Papp B→A at 120 min, 125 μM (in vitro; Caco-2, Papp BL→AP, 125 μM, 120 min, concentration series (Table 2), n = 3): 1.35 ± 0.45 ×10⁻⁶ cm/s
- Papp (in vitro; Caco-2, Papp value (range over concentrations/times, text), summary of Table 2 and Table 3): 1.46 to 1.62 ×10⁻⁶ cm/s
- Papp (in vitro; Caco-2, apparent permeability coefficient (Papp) values (abstract), BFL in free or BPDI form): > 1 ×10⁻⁶ cm/s
- main transport mechanism (Caco-2 cell monolayer; Caco-2 monolayer): passive diffusion
- transport classification (Caco-2 cell monolayer; due to a Papp value of 1–10 × 10^−6 cm/s): moderate transport

Source: paper PMC6149814, “Enhanced Intestinal Permeability of Bufalin by a Novel Bufalin-Peptide-Dendrimer Inclusion through Caco-2 Cell Monolayer” (Molecules : A Journal of Synthetic Chemistry and Natural …, 2017)
